Data on three compounds can be found in article PMC8264504, “Identification of Koumine as a Translocator Protein 18 kDa Positive Allosteric Modulator for the Treatment of Inflammatory and Neuropathic Pain” (Frontiers in Pharmacology, 2021).

Like-named read-outs stand apart in the source and are kept apart here.

One series addresses TSPO. Also noted: method as in Awad and Gavish, 1987; Verma et al., 1987. To be noted: radioligand binding experiment results from literatures, ref Awad and Gavish, 1987, Verma et al.; cited from earlier work.
Series [1] addresses T1, mouse TSPO recombinant protein (TSPO proteoliposomes) (Mus musculus, UniProt P50637).
T1 construct: His tag; made in house; host or cells: Escherichia coli BL21(DE3) pLysS, pET15b vector
Put plainly: SPR single-cycle kinetics on TSPO proteoliposomes. Format: binding. The protocol:
(§1) Cells of the BL21(DE3) pLysS Escherichia coli strain were transformed with the pET15b vector, from which the expression of mouse TSPO recombinant protein was induced by 1 mM isopropyl-1-thiol-β-D-galactopyranoside as previously described ([Robert and Lacapère, 2010]; [Senicourt et al., 2017]). Cells were harvested and resuspended in lysis buffer (150 mM NaCl and 50 mM HEPES-Na, pH 7.8) with the addition of 1 mg/ml lysozyme and sonicated thoroughly. The lysate was centrifuged at 15,000 g at 4°C for 20 min to pellet the insoluble inclusion bodies. The final pellet of inclusion bodies was solubilized in binding buffer (150 mM NaCl, 50 mM HEPES-Na, 1% SDS (wt/vol), pH 7.8) and was purified by the Ni-NTA gravity flow column.
Proteoliposomes composed of DMPC/DMPE (9:1) and TSPO in a 5:1 (wt/wt) ratio were prepared using a previously described method ([Ostuni et al., 2010]). Liposomes composed of DMPC/DMPE (9:1) were prepared as published previously ([Hatty et al., 2014]). A few milligrams of DMPC and DMPE were weighed into a round-bottom glass flask, and chloroform and methanol were added to dissolve them. A thin lipid film was prepared by a rotary evaporator and dried under vacuum for at least 3 h to remove all traces of chloroform and methanol. The dry lipid film was resuspended in PBS buffer (10 mM phosphate buffer, 2.7 mM KCl, 137 mM NaCl) to a concentration of 1 mg/ml, hydrated for 2 h at 45–55°C, and finally sonicated to produce small unilamellar vesicles. The suspension of small unilamellar vesicles was then kept at 45°C for use on the same day. The sizes of proteoliposomes and liposomes were determined by dynamic light scattering using Nicomp 380 Z3000 instrument (Parficle Sizing Systems, America).
SPR analyses were performed at 25°C with a Biacore T200 instrument. For proteoliposomes and liposomes (reference), they were immobilized on a series S L1 sensor chips. It is possible that the repeated regeneration steps in the multicycle kinetics process impairs the activity of TSPO proteoliposomes, thus we were unable to use multicycle kinetics to effectively determine the affinity of TSPO and its ligands. Therefore, the single cycle kinetics, which assumes to be as robust as the classical multicycle kinetics for measuring affinity, was used. Kinetic rate constants for the various analytes were determined using single cycle protocols where five serial 2-fold dilutions of the analytes were injected for 180 s without intervening regeneration, followed by a 300 s dissociation phase after the last injection. Interactions were measured at 30 μl/min. PBS, with addition of 1% DMSO (pH 7.4), was used as running buffer. […] For mouse TSPO in a lipid-free environment, affinity was measured according to established methods with minor modifications ([Zhang et al., 2015]). […]

Series [2] relates to T98G human glioblastoma cells. Put plainly: Cell proliferation assay (BrdU ELISA). Format: cell-based. To be noted: 48 h. The protocol:
T98G cells were plated at 1 × 10^4 cells/well in 96-well plates. […] After 48 h of drug exposure, proliferation was indexed using a BrdU ELISA Kit (Roche Molecular Diagnostics) according to the manufacturer’s protocol, and absorption was measured at 370 nm (reference wavelength 492 nm).

In series [3] the test system is T98G human glioblastoma cells. As to the kind of experiment: Cell viability assay (CellTiter Blue). Format: cell-based. Conditions: same dosing regimen as proliferation, 48 h. As to the method: T98G cells were plated and treated as in the proliferation assays. After 48 h of drug exposure, CellTiter Blue Reagent (Promega) was added to the cells and incubated for 4 h in 5% CO2 at 37°C. Absorption was measured at 570 nm using 600 nm as a reference wavelength.

For a further series, the system named is rat C6 glioma cells. Put plainly: Pregnenolone production. Conditions: 2 h. Format: cell-based.
The target in series [4] is T2, mouse TSPO recombinant protein (Mus musculus, UniProt P50637).
T2 construct: made in house; host or cells: Escherichia coli BL21(DE3) pLysS, pET15b vector
As to the kind of experiment: SPR multicycle kinetics, mouse TSPO in a lipid-free environment. Conditions: CM5 chip, anti-His capture, read-out: affinity to mouse TSPO. Format: binding. The protocol: as §1
SPR analyses were performed at 25°C with a Biacore T200 instrument. For proteoliposomes and liposomes (reference), they were immobilized on a series S L1 sensor chips. It is possible that the repeated regeneration steps in the multicycle kinetics process impairs the activity of TSPO proteoliposomes, thus we were unable to use multicycle kinetics to effectively determine the affinity of TSPO and its ligands. Therefore, the single cycle kinetics, which assumes to be as robust as the classical multicycle kinetics for measuring affinity, was used. Kinetic rate constants for the various analytes were determined using single cycle protocols where five serial 2-fold dilutions of the analytes were injected for 180 s without intervening regeneration, followed by a 300 s dissociation phase after the last injection. Interactions were measured at 30 μl/min. PBS, with addition of 1% DMSO (pH 7.4), was used as running buffer. Three consecutive 1 min injections with 10 μl/min of glycine HCl 3.0 at the end of each single-cycle kinetics regenerated the chip. For mouse TSPO in a lipid-free environment, affinity was measured according to established methods with minor modifications ([Zhang et al., 2015]). Briefly, HBS-EP buffer was used as the running buffer. […]

The test system of series [5] is postoperative pain model of rats. Also on record: method as in Xiong et al., 2017. Conditions: ref Xiong et al., 2017, cited from earlier work.
The target of series [6] is T3, TSPO from rat cerebral cortex (Rattus norvegicus, UniProt P16257).
T3 construct: male SD rats (240 ± 10 g) were killed by decapitation, and the cerebral cortices were dissected; from tissue; host or cells: rat (SD) cerebral cortex, crude mitochondrial/membrane pellet
T3 sequence (P16257 whole entry): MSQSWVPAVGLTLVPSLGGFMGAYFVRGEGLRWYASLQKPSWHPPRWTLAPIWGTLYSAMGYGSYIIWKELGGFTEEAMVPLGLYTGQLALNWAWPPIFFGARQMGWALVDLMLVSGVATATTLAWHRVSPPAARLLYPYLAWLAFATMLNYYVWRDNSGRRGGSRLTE
Put plainly: 3H-PK11195 saturation binding. To be noted: 0.125–32 nM, 4°C, 2 h.
Method: After incubating at 4°C for 2 h, the reaction was terminated by the addition of ice-cold 50 mM Tris HCl buffer (pH 7.4) followed by vacuum filtration through Filtermat A glass microfiber filters (pretreated with 0.2% polyethylenimine) using a Brandel cell harvester. The filters were washed rapidly, and radioactivity was determined by liquid scintillation spectrometry.

The target of series [7] is T3, TSPO from rat cerebral cortex. As to the kind of experiment: 3H-PK11195 dissociation kinetics. Format: binding. To be noted: vehicle; dissociation induced by 10 μM PK11195, 4°C. As to the method:
Briefly, male SD rats (240 ± 10 g) were killed by decapitation, and the cerebral cortices were dissected. The tissues were homogenized in 10 volumes (ml/g) of 50 mM Tris HCl buffer containing 0.32 M sucrose (pH 7.4). The homogenates were centrifuged at 1,000 g for 10 min at 4°C. The resulting pellets were discarded, and the supernatants were centrifuged at 9,000 g for 15 min. The pellets were resuspended in 10 volumes of Tris HCl buffer containing 0.32 M sucrose (pH 7.4) and centrifuged at 13,000 g for 30 min, then resuspended in 10 volumes of Tris HCl buffer and centrifuged again at 13,000 g for 30 min. The final pellets were suspended in Tris HCl buffer and used in the binding assays. Protein concentrations were measured using the BCA Protein Assay Kit (ThermoFisher Scientific) according to the manufacturer’s instructions.
Then, samples were filtered through Filtermat A glass microfiber filters (pretreated with 0.2% polyethylenimine) using a Brandel cell harvester, and the radioactivities were measured at the indicated time points.

Consider `C=CC1=C(C)c2cc3[nH]c(cc4nc(cc5[nH]c(cc1n2)c(C)c5CCC(=O)O)C(CCC(=O)O)=C4C)c(C)c3C=C` [protoporphyrin IX], for which the Kd is 0.0145 ± 0.0107 µM at TSPO and 0.0126 ± 0.00039 µM in series [1] (SPR single-cycle kinetics, TSPO proteoliposomes on L1 chip, 25°C, Langmuir 1:1 fit, read-out: KD).

As for `CCC(C)N(C)C(=O)c1cc2ccccc2c(-c2ccccc2Cl)n1` (stereo not drawn) [PK11195], in [2] (BrdU), the “EC20 concentration, inhibition of cell proliferation” value was approximately 75 µM. Besides, the EC50 stood at 81 µM in series [2] (Homo sapiens, T98G, read-out: EC50, inhibition of cell proliferation) and 69 µM in the series on rat C6 glioma cells (Rattus norvegicus, C6 glioma, read-out: EC50, pregnenolone production). The figures for the Kd in [1] and in [4] were 0.00197 ± 2e-05 µM and 161 ± 6.1 µM, respectively. Besides, the cell viability result in [3] is on record as “not significantly affected”. Moreover, the “EC20 concentration, pregnenolone production” value in the series on rat C6 glioma cells was approximately 27 µM. In the series with rat C6 glioma cells (vs vehicle), the “increase in pregnenolone production” value is recorded as “approximately 50%”. Besides, the analgesic effect result in series [5] (7 μg PK11195 alone, intrathecal) is given as “can also produce a certain analgesic effect”; in [5] (intrathecal injection of 0.7 μg PK11195), “had no analgesic effect”. For the same compound, the “effect on analgesic effect of intrathecal 200 μg koumine” value in [5] (intrathecal 0.7 μg PK11195 with 200 μg koumine) is “weakened the analgesic effect”.

In series [6], `CCC(C)N(C)C(=O)c1cc2ccccc2c(-c2ccccc2Cl)n1` (stereo not drawn) [^3H-PK11195, reference compound] gave a Bmax of 143.3 ± 5.4 fmol/mg protein. For the same compound, in series [7], the “dissociation rate of 3H-PK11195” value turned out to be 0.0419 ± 0.0016 min⁻¹.
